Key:
[1] = tested on: LN-18; assay: SRB cytotoxicity assay, LN-18 cells; type: cell-based, human; conditions: 72 h
Protocol: (§1) All cell lines described herein were purchased from ATCC. […] Control cultures were treated with ethanol alone.

[2] = tested on: HT-1080 (Fibrosarcoma); assay: SRB cytotoxicity assay, HT-1080 cells; type: cell-based
Protocol: as §1

[3] = tested on: HUVEC; assay: SRB cytotoxicity assay, HUVEC; type: cell-based; conditions: Homo sapiens, non-malignant, endothelial, 72 h
Protocol: as §1

[4] = tested on: T47-D; assay: SRB cytotoxicity assay, T47-D cells; type: cell-based; conditions: Homo sapiens, T47D, malignant, breast, 72 h
Protocol: as §1

[5] = tested on: PC-3; assay: SRB cytotoxicity assay, PC-3 cells; type: cell-based; conditions: Homo sapiens, PC-3, malignant, prostatic, 72 h
Protocol: as §1

[6] = tested on: SW-872 (Liposarcoma); assay: SRB cytotoxicity assay, SW-872 cells; type: cell-based; conditions: Homo sapiens, SW872
Protocol: as §1

[7] = tested on: OVCAR-3; assay: SRB cytotoxicity / proliferation assay, OVCAR-3 cells; conditions: for significant cytotoxic effect of MPL alone: OVCAR-3 cells
Protocol: Cells were seeded in 96-well plates (2,000-3,000 cells/well) and culture overnight prior to treatment with MPL. Control cultures were treated with ethanol alone.
Cytotoxicity was assessed using the sulforhodamine B (SRB) assay and reported as half maximal inhibitory concentration (IC50; Table 3). Cells were seeded in 96-well plates (2,000-3,000 cells/well), treated with the indicated compound(s) for 72 h, fixed, washed and stained with 100 μl of 0.4% (w/v) SRB dissolved in 1% acetic acid. Unbound dye was removed by five washes with 1% acetic acid before air-drying.
In order to evaluate the effect of MPL on the in vitro efficacy of an established drug was evaluated using cell viability and cell proliferation assays. Cell viability was conducted according to standard Trypan Blue method. Cell proliferation was assessed using the sulforhodamine B (SRB) assay. For viability experiments, cells were seeded in 6 well plates, whereas for proliferation assays cells were grown in 96 well plates. Following over-night attachment, cells were treated with the intended drug at various concentrations either alone or in combination with monepantel (MPL) for 72 h. Parallel to this, cells treated with MPL alone were also deployed for comparative purposes. Following incubation for 72 h in a standard cell culture incubator, effect of mono and combined drug treatments on cell viability and/or cell proliferation was assessed through using Trypan Blue or SRB assays respectively.
For viability assay, at the end of treatment period, cells were washed with PBS, trypsinized and counted using Trypan blue and hemocytometer. For the SRB assay cells were fixed, washed and stained with 100 μl of 0.4% (w/v) SRB dissolved in 1% acetic acid. Unbound dye was removed by five washes with 1% acetic acid before air drying. […] Monepantel (gift by Novartis, Basel, Switzerland) was dissolved in 100% ethanol and then diluted with the cell culture media.
MPL (5 μM) and combination drugs were applied for 72 h unless indicated.

For `C[C@](C#N)(COc1cc(C#N)ccc1C(F)(F)F)NC(=O)c1ccc(SC(F)(F)F)cc1` [MPL, N-[(1S)-1-cyano-2-(5-cyano-2-trifluoromethyl-phenoxy)-1-methyl-ethyl]-4-trifluoromethylsulfanyl-benzamide], the IC50 ([1]; Homo sapiens, LN-18, malignant, glial, SRB) was 9.4 ± 0.8 µM, the “Mpl Alone, Mpl (x/X) Inhibition” value ([1]; LN18 Glioblastoma, 5 μM MPL, x=number of events, X=number of experiments) was 2/2 and the “Mpl Alone, Mpl (x/X) Inhibition” value ([2]; HT180 Fibrosarcoma, 5 or 10 μM MPL, 72 h, x=events, X=experiments) was “(1/1)”. For the same compound, the IC50 ([2]; Homo sapiens, HT-1080 (Fibrosarcoma), malignant, mesenchymal, SRB, 72 h) was 17.2 µM, the EC50 ([2]; Homo sapiens, HT-1080 cells) was 17.2 µM and the IC50 [3] was 87 µM. The IC50 [4] was 5.3 µM, the IC50 [5] was 21 µM and the IC50 ([6]; SW-872 (Liposarcoma), malignant, mesenchymal, SRB, 72 h) was 14.7 µM. For the same compound, the EC50 ([6]; SW-872 cells) was 14.7 µM, the IC50 ([7]; Homo sapiens, OVCAR-3, 72 h) was 6.3 ± 0.8 µM and the “Mpl Alone, Mpl (x/X) Inhibition” value ([7]; OVCAR-3, 5 μM MPL, 72 h, x=events, X=experiments, Table 7) was “(3/3)”. The “Mpl Alone, Mpl (x/X) Inhibition” value ([7]; OVCAR-3, 5 or 10 μM MPL, 72 h, Table 8 lower panel, same MPL control for serotonin and wortmannin) was “(2/2)^2”, the “Mpl Alone, Mpl (x/X) Inhibition” value ([7]; OVCAR-3, 5 or 10 μM MPL, 72 h, Table 8 upper panel, x=events, X=experiments) was “(5/5)” and the “A) Single treatment, one symbol per experiment” value ([7]; OVCAR-3, MPL (5 μM), 72 h) was “✓✓✓✓✓✓”. The “Mpl Alone, Mpl (x/X) Inhibition” value ([7]; OVCAR-3 Ovarian, 5 μM MPL, 72 h, x=events, X=experiments, Table 6) was 4/4, the “significant cytotoxic effect of MPL alone” value ([7]; MPL 2.5 μM, 1/1 experiments) was “but not 2.5 μM alone” and the “significant cytotoxic effect of MPL alone” value ([7]; MPL 5 μM, 6/6 experiments) was “significant cytotoxic effect”.
